From article PMC3891892 (Nature, 2013)
Values after ≈ are worked out from the molar mass of the structure shown.

Legend:
[1] = test system: recombinant virus possessing Hangzhou/1 HA; assay type: binding, influenza A virus (H7N9)
[2] = test system: CA04 (A/California/04/2009; H1N1); test: microbe, parasite or virus in culture; assay type: cell-based; conditions: Influenza A virus, H1N1, MDCK, read-out: IC50, plaque reduction assay
CA04 = test system: CA04; parameters: species or system mice; conditions: mouse, in vivo, po

SMILES	effect of inhibition of NA enzymatic function on glycan binding [1]	IC50 [2]	therapeutic effectiveness (CA04)
CC(=O)N[C@H]1[C@H]([C@H](O)[C@H](O)CO)OC(C(=O)O)=C[C@@H]1N=C(N)N [Zanamivir, zanamivir]	substantial increases in binding to α2–3 linked sialosides	–	–
NC(=O)c1nc(F)c[nH]c1=O [favipiravir]	–	1.2 µg/mL (≈ 7.64 µM)	clear therapeutic effectiveness
